Drawing on patent US6204262A, “1,3-Benzodiazepin-2-ones and 1,3-Benzoxazepin-2-ones useful as HIV reverse transcriptase inhibitors” (DuPont Pharmaceuticals Company, priority 1999, dated 2001), this text covers IC90 for 1 compound.

The test system of the assay is HIV-1 (RF). Put plainly: Microplate based compound evaluation in HIV-1 infected MT-2 cells (HIV RNA assay). The format is cell-based. The conditions noted are these: Human immunodeficiency virus 1, MT2, 72 h; HIV-1 (RF) infected MT-2 cells, 3 days at 37° C.; virus inoculum standardized on ddC; read-out: IC90 value (concentration of compound required to reduce the HIV RNA level by 90%). The protocol:
Plasmid pDAB 72 containing both gag and pol sequences of BH10 (bp 113-1816) cloned into PTZ 19R was prepared according to Erickson-Viitanen et al. AIDS Research and Human Retroviruses 1989, 5, 577. The plasmid was linearized with Bam HI prior to the generation of in vitro RNA transcripts using the Riboprobe Gemini system II kit (Promega) with T7 RNA polymerase. Synthesized RNA was purified by treatment with RNase free DNAse (Promega), phenol-chloroform extraction, and ethanol precipitation. RNA transcripts were dissolved in water, and stored at -70° C. The concentration of RNA was determined from the A260.
Biotinylated capture probes were purified by HPLC after synthesis on an Applied Biosystems (Foster City, Calif.) DNA synthesizer by addition of biotin to the 5' terminal end of the oligonucleotide, using the biotin-phosphoramidite reagent of Cocuzza, Tet. Lett. 1989, 30, 6287. […]
MT-2 and MT-4 cells were maintained in RPMI 1640 supplemented with 5% fetal calf serum (FCS) for MT-2 cells or 10% FCS for MT-4 cells, 2 mM L-glutamine and 50 μg/mL gentamycin, all from Gibco. […] Infectious titers of HIV-1(RF) stocks were 1-3×10^7 PFU (plaque forming units)/mL as measured by plaque assay on MT-2 cells (see below). […]

In brackets after ≈: the same amount, converted by molar mass.

For the compound `Nc1ccn([C@H]2CC[C@@H](CO)O2)c(=O)n1` [ddC, 2',3'-dideoxycytidine], the IC90 amounted to 0.2 µg/mL (≈ 0.947 µM).
